Laboratory results taken from patent US20210214405A1, “PEPTIDE, METHOD AND COMPOSITION FOR MELANIN POLYMERIZATION AND HAIR DARKENING” (Renorigin Innovation Institute Co., Ltd., priority 2020, published 2021).

Experiment: The polymerization of melanin (melanin pellet, absorbance at 400 nm; light microscope)
Assay type: biochemical
Conditions: 0.025 mg/ml melanin treated with 50 μM peptide for 24 h
Method: 0.025 mg/ml melanin was treated with 50 μM peptide for 24 h. Data are represented as the means±SD from three independent experiments. ***p<0.001.
0.025 mg/ml melanin were treated with 50 μM peptides for 24 h, and then centrifuged at 10,000 g for 5 min. The supernatant was removed from the tube, leaving only the melanin pellet. The polymerization of melanin was quantified after boiling in 1 M NaOH for 1 hour and the absorbance was measured spectrophotometrically at 400 nm.

## CTISQPEWFKCRR [SEQ ID NO: 3]
  melanin polymerization: did not show effects on melanin polymerization

## RMKKLGAPSI [SEQ ID NO: 15]
  melanin polymerization: did not show effects on melanin polymerization

## APRKNVRWCTISQ [SEQ ID NO: 2]
  melanin polymerization: did not show effects on melanin polymerization
